Common to all, as to type: cell-based
For experiment [1], the target named is Voltage-dependent T-type calcium channel subunit alpha-1H (Homo sapiens) (UniProt O95180). As to the kind of experiment: Inhibition of alpha-1H T-type calcium channel Cav3.2 expressed in Xenopus unfertilized oocytes at 100 uM by two-electrode voltage clamp method. Particulars: Oocyte.
Experiment [2] addresses T1, Voltage-dependent T-type calcium channel subunit alpha-1G (Homo sapiens, UniProt O43497). As to the kind of experiment: Inhibition of alpha-1G T-type calcium channel expressed in HEK293 cells by electrophysiological method.
Experiment [3] is described as follows: Inhibition of alpha-1B N-type calcium channel expressed in HEK293 cells by electrophysiological method.
The target in experiment [4] is T1, Voltage-dependent T-type calcium channel subunit alpha-1G. As to the kind of experiment: Inhibition of alpha-1G T-type calcium channel expressed in HEK293 cells at 10 uM by electrophysiological method.

The source made the active and inactive calls. No cut-off for these calls is given here.

T1 sequence (O43497 whole entry): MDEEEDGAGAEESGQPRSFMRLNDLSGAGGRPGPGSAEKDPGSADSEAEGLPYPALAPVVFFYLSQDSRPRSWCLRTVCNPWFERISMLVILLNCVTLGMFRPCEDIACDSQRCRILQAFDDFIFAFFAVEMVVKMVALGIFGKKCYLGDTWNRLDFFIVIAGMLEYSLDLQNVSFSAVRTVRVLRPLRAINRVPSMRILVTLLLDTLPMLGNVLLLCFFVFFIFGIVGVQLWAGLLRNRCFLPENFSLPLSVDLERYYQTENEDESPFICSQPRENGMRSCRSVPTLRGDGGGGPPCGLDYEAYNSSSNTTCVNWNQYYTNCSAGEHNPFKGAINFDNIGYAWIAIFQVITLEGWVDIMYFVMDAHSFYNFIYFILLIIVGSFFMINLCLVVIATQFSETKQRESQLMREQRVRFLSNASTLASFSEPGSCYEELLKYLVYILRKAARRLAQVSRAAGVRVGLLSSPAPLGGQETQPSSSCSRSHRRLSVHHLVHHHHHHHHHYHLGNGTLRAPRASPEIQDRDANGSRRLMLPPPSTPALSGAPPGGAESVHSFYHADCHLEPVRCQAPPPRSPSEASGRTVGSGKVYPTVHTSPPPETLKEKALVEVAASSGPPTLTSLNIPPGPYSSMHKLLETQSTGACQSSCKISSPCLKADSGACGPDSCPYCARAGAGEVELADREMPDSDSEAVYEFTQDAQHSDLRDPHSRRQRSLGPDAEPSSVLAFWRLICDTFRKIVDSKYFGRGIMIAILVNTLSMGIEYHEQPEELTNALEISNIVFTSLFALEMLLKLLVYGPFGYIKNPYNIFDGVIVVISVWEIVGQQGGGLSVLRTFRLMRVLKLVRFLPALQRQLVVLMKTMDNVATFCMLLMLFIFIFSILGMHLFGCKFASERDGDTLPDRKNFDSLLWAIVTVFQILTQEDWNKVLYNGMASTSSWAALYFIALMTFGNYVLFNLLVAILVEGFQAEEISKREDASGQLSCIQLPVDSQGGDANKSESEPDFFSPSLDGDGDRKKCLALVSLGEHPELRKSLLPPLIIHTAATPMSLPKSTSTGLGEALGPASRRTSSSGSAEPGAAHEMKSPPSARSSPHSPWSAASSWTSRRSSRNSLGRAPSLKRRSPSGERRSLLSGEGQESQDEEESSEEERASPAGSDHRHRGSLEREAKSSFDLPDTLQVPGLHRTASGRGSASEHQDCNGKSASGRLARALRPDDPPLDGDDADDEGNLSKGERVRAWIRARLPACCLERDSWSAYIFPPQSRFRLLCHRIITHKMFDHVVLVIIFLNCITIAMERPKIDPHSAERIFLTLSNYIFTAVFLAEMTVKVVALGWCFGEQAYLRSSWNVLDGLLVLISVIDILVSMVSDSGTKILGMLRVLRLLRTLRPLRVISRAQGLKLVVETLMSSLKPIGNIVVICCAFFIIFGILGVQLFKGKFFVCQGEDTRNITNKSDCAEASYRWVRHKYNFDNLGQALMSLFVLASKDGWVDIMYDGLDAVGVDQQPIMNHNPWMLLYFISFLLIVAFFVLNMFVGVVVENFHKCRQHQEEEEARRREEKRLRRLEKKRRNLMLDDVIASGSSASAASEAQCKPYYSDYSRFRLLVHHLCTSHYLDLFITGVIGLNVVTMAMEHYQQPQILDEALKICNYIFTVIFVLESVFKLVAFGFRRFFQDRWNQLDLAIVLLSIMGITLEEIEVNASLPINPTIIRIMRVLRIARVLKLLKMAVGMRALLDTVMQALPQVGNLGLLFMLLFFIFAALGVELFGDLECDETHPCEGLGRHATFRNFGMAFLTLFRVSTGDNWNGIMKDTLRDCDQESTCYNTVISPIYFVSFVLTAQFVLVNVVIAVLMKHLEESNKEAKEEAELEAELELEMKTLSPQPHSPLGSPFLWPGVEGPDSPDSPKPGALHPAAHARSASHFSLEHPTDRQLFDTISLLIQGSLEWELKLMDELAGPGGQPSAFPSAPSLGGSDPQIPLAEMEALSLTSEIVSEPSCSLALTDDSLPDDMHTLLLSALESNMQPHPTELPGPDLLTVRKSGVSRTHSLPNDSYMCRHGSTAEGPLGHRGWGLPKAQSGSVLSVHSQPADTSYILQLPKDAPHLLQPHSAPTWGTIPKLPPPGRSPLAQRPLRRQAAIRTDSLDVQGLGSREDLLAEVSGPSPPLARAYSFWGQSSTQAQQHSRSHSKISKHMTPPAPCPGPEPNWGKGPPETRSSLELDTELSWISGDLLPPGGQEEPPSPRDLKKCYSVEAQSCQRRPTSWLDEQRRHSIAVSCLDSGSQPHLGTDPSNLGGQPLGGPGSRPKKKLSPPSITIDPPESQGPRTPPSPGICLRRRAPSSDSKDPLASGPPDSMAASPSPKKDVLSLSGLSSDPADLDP
Voltage-dependent T-type calcium channel subunit alpha-1H (Homo sapiens), sequence (O95180 whole entry): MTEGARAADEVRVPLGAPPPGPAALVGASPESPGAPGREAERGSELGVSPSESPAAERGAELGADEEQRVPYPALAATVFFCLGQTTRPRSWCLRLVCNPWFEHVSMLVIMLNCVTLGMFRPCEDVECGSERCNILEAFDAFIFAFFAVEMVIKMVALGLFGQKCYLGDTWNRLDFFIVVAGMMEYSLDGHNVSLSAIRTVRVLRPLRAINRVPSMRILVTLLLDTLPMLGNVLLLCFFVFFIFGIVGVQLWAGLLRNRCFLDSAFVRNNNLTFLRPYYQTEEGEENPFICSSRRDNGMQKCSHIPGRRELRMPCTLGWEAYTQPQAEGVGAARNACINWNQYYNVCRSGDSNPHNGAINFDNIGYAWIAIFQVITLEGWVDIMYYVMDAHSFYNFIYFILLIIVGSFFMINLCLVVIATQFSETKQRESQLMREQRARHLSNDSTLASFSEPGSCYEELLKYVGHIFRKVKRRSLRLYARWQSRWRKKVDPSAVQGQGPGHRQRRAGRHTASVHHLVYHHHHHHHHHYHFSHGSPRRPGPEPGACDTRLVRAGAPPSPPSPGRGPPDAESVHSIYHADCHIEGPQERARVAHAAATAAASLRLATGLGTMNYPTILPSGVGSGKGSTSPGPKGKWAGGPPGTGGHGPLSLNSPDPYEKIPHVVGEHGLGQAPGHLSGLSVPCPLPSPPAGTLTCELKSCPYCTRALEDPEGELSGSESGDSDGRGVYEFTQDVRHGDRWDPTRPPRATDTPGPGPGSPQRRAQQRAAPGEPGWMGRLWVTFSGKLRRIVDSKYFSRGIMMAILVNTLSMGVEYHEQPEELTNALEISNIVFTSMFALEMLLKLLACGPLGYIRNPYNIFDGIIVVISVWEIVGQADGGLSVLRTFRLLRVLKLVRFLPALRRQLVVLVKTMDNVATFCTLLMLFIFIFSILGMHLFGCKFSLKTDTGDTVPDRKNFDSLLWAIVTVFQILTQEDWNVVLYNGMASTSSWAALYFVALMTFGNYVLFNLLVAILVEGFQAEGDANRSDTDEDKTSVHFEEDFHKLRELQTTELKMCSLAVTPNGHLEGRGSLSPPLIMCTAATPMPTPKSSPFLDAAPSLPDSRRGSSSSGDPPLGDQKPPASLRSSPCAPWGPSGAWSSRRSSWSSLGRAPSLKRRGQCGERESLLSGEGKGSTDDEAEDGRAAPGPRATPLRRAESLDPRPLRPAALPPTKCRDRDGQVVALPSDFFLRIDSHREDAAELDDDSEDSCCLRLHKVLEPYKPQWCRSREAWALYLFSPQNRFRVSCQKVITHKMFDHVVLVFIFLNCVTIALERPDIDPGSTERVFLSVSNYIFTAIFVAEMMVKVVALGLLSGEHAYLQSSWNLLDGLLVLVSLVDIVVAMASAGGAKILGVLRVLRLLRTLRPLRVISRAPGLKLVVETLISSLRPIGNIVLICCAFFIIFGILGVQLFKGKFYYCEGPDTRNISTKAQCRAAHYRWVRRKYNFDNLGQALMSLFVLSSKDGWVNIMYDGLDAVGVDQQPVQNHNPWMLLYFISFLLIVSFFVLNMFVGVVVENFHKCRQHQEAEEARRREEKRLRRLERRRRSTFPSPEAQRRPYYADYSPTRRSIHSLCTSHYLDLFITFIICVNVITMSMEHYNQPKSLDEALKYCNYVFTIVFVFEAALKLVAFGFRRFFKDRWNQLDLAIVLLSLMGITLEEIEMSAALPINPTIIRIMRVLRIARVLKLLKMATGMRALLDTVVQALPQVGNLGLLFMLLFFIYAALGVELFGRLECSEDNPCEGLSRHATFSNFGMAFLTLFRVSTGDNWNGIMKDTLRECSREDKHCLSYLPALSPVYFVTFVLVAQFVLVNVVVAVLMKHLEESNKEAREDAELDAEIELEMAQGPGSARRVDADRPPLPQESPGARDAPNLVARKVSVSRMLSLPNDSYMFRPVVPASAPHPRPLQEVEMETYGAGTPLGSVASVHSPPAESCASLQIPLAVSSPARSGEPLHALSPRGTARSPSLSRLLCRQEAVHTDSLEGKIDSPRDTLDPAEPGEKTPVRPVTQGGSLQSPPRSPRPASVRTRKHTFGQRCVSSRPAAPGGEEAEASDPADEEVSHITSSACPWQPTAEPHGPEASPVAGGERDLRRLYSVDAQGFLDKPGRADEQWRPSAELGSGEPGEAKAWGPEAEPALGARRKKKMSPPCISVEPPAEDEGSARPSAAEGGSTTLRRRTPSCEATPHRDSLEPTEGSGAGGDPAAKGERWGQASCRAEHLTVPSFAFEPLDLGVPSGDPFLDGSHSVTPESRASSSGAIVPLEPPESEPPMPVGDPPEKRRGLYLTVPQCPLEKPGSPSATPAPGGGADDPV

In the case of `CCN(CC)CCNC(=O)c1ccc(NC(=O)c2cn(CC)c3nc(C)ccc3c2=O)cc1`, the inhibition (commonly the drop in the measured response relative to a control, in per cent) in experiment [1] turned out to be 41.9%.

On to `O=C(CN1CCN(C(c2ccccc2)c2ccccc2)CC1)NCc1ccc2c(c1)OCO2`, for which, in experiment [1], the inhibition amounted to 12.5%.

`O=C(CCC(=O)Nc1nc(-c2cc3cc(Cl)ccc3oc2=O)cs1)NCCCN1CCCC1`: the inhibition in experiment [1] stood at 43.9%.

As for `O=C(NCCCn1ccnc1)c1ccc2c(=O)n(-c3ccccc3)c(=S)[nH]c2c1`, the inhibition in experiment [1] is 2.47%.

As to `CCN(CC)CCOC(=O)c1ccc(N/C=C2/C(=O)NC(=O)N(CCc3ccccc3)C2=O)cc1`, the result in experiment [1] was inactive.

In the case of `O=C1CC(N2CCN(C(c3ccccc3)c3ccccc3)CC2)C(=O)N1c1ccc(Cl)c(C(F)(F)F)c1` (stereo not given), the inhibition in experiment [1] came to 41.8%.

`O=C(NCCCN1CCCCC1)c1ccc2c(=O)n(Cc3ccc(Cl)cc3)c(=S)[nH]c2c1`: the IC50 (in general, the concentration that inhibits the measured activity by half) in experiment [2] was determined as 2080 nM; in experiment [3], 8.1 µM. In addition, the inhibition in experiment [1] turned out to be 72.9%; in experiment [4], 34.3%.

As for `O=C1c2ccccc2C(=O)N1CCCN1CCN(Cc2c(F)cccc2Cl)CC1`, in experiment [1], the inhibition was 8.1%.

Regarding `O=C(CSC1CN(C(c2ccccc2)c2ccccc2)C1)NNC(=O)c1ccc(Cl)cc1`, in experiment [1], the inhibition is 28.3%.

Regarding `O=C(NC1CCN(Cc2ccccc2)CC1)c1ccc2c(=O)n(Cc3ccc(Cl)cc3)c(=S)[nH]c2c1`, the result in experiment [1] was inactive.

Consider `CCN(CC)CCNC(=O)C1c2ccccc2C(=O)N(Cc2ccc(F)cc2)C1c1ccc(OC)cc1` (stereo not given), for which the inhibition in experiment [1] stood at 52.2%.

Regarding `Cc1ccc(N(CC(O)CN(Cc2ccccc2)Cc2ccccc2)S(=O)(=O)c2ccccc2[N+](=O)[O-])cc1` (stereo not given), in experiment [1], the inhibition is 34.7%.

Take `CCC1CCCCN1CCCNC(=O)c1ccc2c(=O)n(Cc3ccc(Cl)cc3)c(=S)[nH]c2c1` (stereo not given): the inhibition in experiment [1] came out at 98.3%; in experiment [4], 88.3%. Besides, in experiment [3], the IC50 came out at 2.1 µM.

As for `COC(=O)c1ccc2c(=O)n(Cc3ccc(C(=O)N4CCC(N5CCCCC5)CC4)cc3)c(=S)[nH]c2c1`, the inhibition in experiment [1] worked out at 10.3%.

As to `O=C1CC(N2CCN(C(c3ccc(F)cc3)c3ccc(F)cc3)CC2)C(=O)N1c1ccc(Br)cc1` (stereo not given), the inhibition in experiment [1] came out at 37.1%.

Regarding `CN1CCN(C(=O)c2ccc3c(=O)n(Cc4ccc(Cl)cc4)c(=S)[nH]c3c2)CC1`, the IC50 in experiment [2] was determined as 11400 nM. Further, the inhibition in experiment [4] is 51.4%.

For the compound `Cc1cccc(N2CCN(CC(=O)Nc3ccc(Cl)cc3C(=O)c3ccccc3Br)CC2C)c1` (stereo not given), the inhibition in experiment [1] worked out at 9.23%.

With `O=C(O)c1ccc2c(=O)n(Cc3ccc(CNCCCN4CCN(c5cccc(Cl)c5)CC4)cc3)c(=S)[nH]c2c1`, in experiment [1], the inhibition amounted to 11.4%.

`O=C(NCCCN1CCCCCC1)c1ccc2c(=O)n(Cc3ccc(Cl)cc3)c(=S)[nH]c2c1`: the figures for the IC50 in experiment [2] and in experiment [3] were 1410 nM and 5.8 µM, respectively. Moreover, in experiment [4], the inhibition came out at 85.4%.

As to `O=C1c2ccccc2C(=O)N1CC#CCN1CCN(C(c2ccccc2)c2ccccc2)CC1`, in experiment [1], the outcome was inactive.

For the compound `COC(=O)c1ccc(S(=O)(=O)N2CCN(C(c3ccccc3)c3ccccc3)CC2)n1C`, in experiment [1], the result was inactive.

For the compound `CN(c1ccc(Br)cc1)S(=O)(=O)c1ccc2[nH]cc(C(=O)N3CCN(Cc4ccccc4)CC3)c(=O)c2c1`, in experiment [1], the inhibition is 86.5%.

With `CCN(CC)CCNC(=O)c1cn(-c2ccc(Cl)cc2)c(=O)c2ccccc12`, in experiment [1], the inhibition worked out at 13%.

For the compound `FC(F)(F)c1cccc(N2CCN(Cn3nc(-c4ccccc4)n(-c4ccccc4)c3=S)CC2)c1`, in experiment [1], the inhibition stood at 11.4%.

As to `CCN1CCN(c2cc(C)c3cc(NC(=O)/C=C/c4cccc(Cl)c4)ccc3n2)CC1`, in experiment [1], the outcome was inactive.

Take `O=C1CC(N2CCN(C(c3ccc(F)cc3)c3ccc(F)cc3)CC2)C(=O)N1c1ccc(Cl)cc1` (stereo not given): the inhibition in experiment [1] was determined as 51.8%.

For the compound `OC(CN1CCN(C(c2ccccc2)c2ccccc2)CC1)Oc1cccc(C(F)(F)F)c1` (stereo not given), the inhibition in experiment [1] worked out at 58.3%.

Regarding `CC1CCN(CCCNC(=O)c2ccc3c(=O)n(Cc4ccc(Cl)cc4)c(=S)[nH]c3c2)CC1`, the IC50 was 1100 nM in experiment [2] and 6.4 µM in experiment [3]. In addition, in experiment [4], the inhibition is 89.2%.

Regarding `CCN1C(N2CCCCC2)=Nc2ccccc2C1CC(=O)NCc1ccc(NS(=O)(=O)c2ccc(C)cc2)cc1` (stereo not given), the IC50 in experiment [2] worked out at 960 nM.

As to `O=C(NCCCN1CCOCC1)c1ccc2c(=O)n(Cc3ccccc3)c(=S)[nH]c2c1`, the inhibition in experiment [1] is 15.9%.

As for `O=[N+]([O-])c1ccccc1S(=O)(=O)N1CCN(Cc2ccccc2Cl)CC1`, the inhibition in experiment [1] was found to be 7.57%.

For `O=C(CCN1C(=O)c2ccccc2C1=O)N1CCN(C(c2ccccc2)c2ccccc2)CC1`, in experiment [1], the inhibition turned out to be 43.3%.

With `CCOC(=O)c1c(C)n(Cc2ccccc2)c2ccc(OCC(O)CN3CCN(Cc4ccccc4)CC3)cc12` (stereo not given), in experiment [1], the inhibition stood at 8.83%.

Regarding `O=C(CN(c1cccc([N+](=O)[O-])c1)S(=O)(=O)c1ccccc1)N1CCN(Cc2ccccc2)CC1`, the inhibition in experiment [1] is 42.5%.

On to `CCN(CC)CCOC(=O)c1ccc(NC(=O)c2cc3ccccc3o2)cc1`, for which the inhibition in experiment [1] turned out to be 34.4%.

Consider `CC1CCN(CCNC(=O)c2ccc(-n3c(=S)[nH]c4ccccc4c3=O)cc2)CC1`, for which the outcome in experiment [1] was inactive.

On to `CC1CCN(CCCNC(=O)c2ccc(Cn3c(=S)[nH]c4ccc(Br)cc4c3=O)cc2)CC1`, for which the inhibition in experiment [1] was determined as 62.6%.

Take `O=C(CN1CCN(C2c3ccccc3-c3ccccc32)CC1)Nc1cc(C(F)(F)F)ccc1Cl`: the result in experiment [1] was inactive.

For `CCN1CCN(CCCNC(=O)c2ccc3c(=O)n(Cc4ccc(Cl)cc4)c(=S)[nH]c3c2)CC1`, the results for the IC50 in experiment [2] and in experiment [3] were 2530 nM and 7.1 µM, respectively. For the same compound, the inhibition in experiment [4] was 78.9%.

As for `CCOC(=O)c1cc2c(c(CSc3nc4ccccc4c(=O)n3CCCN3CCCCC3)c1)OCOC2`, the inhibition in experiment [1] came to 35.3%.

For the compound `O=C(NCCCn1ccnc1)c1ccc2c(=O)n(-c3ccc(F)c(Cl)c3)c(=S)[nH]c2c1`, the outcome in experiment [1] was inactive.

Turning to `Cc1ccc(C(=O)Oc2ccc(NC3=NS(=O)(=O)c4ccccc43)cc2CN2CCCCC2)cc1`, the inhibition in experiment [1] came out at 13.5%.

With `COc1ccccc1-c1cc(CNCCN2CCN(c3cccc(C(F)(F)F)c3)CC2)on1`, the IC50 in experiment [2] came to 2040 nM.

In the case of `CCN(CC)CCNC(=O)c1ccc(CNc2nc(=S)[nH]c3ccccc23)cc1`, the inhibition in experiment [1] is 9.54%.

Turning to `Cc1ccc(N2CCN(CCNCc3cc(-c4ccccc4C(F)(F)F)no3)CC2)c(C)c1`, in experiment [2], the IC50 was determined as 1530 nM.

For the compound `CCCCN(C)CCNC(=O)c1ccc2c(=O)n(Cc3ccc(Cl)cc3)c(=S)[nH]c2c1`, the IC50 in experiment [2] came out at 11400 nM. Moreover, the inhibition in experiment [4] was determined as 34.3%.

On to `CC1CC(C)CN(CCCNc2ccc(C(=O)Nc3ccc(C(F)(F)F)cc3)cc2[N+](=O)[O-])C1` (stereo not given), for which the inhibition in experiment [1] is 56%.

Consider `CN(CCCNC(=O)c1ccc(-n2c(=S)[nH]c3ccc(Br)cc3c2=O)cc1)Cc1ccccc1`, for which the inhibition in experiment [1] is 25.7%.

Consider `COc1cccc(NC2=C3C(=O)c4ccccc4C4ON=C(C(N5CCN(Cc6cc(Cl)ccc6OC)CC5)=C2)C34)c1` (stereo not given), for which the inhibition in experiment [1] was 16.1%.

Turning to `O=C(CCN1C(=O)c2ccccc2C1=O)N1CCN(Cc2ccc(Cl)cc2Cl)CC1`, the inhibition in experiment [1] was 12%.

Consider `CN(CCCNC(=O)c1ccc2c(=O)n(Cc3ccc(Cl)cc3)c(=S)[nH]c2c1)Cc1ccccc1`, for which, in experiment [2], the IC50 came out at 4690 nM. The inhibition in experiment [4] worked out at 37.5%.

For the compound `O=C1CC(N2CCN(C(c3ccccc3)c3ccc(Cl)cc3)CC2)C(=O)N1c1cccc(Cl)c1` (stereo not given), the inhibition in experiment [1] came out at 16.6%.

As for `O=C(NCCCN1CCOCC1)c1ccc2c(=O)n(-c3cccc(C(F)(F)F)c3)c(=S)[nH]c2c1`, the inhibition in experiment [1] is 15.9%.

Turning to `Cc1ccc(CSc2nc3cc(C(=O)NCCCN4CCOCC4)ccc3c(=O)n2-c2ccc(F)cc2)cc1`, in experiment [1], the outcome was inactive.

Consider `COc1ccccc1-c1cc(CNCCN2CCN(c3ccc(C)cc3C)CC2)on1`, for which, in experiment [2], the IC50 came to 2020 nM.

Turning to `O=S(=O)(c1cccc2nonc12)N1CCN(C(c2ccccc2)c2ccccc2)CC1`, in experiment [1], the inhibition stood at 15.2%.

Regarding `CCOC(=O)c1c(NC(=O)c2ccc(S(=O)(=O)N(C)c3ccccc3)cc2)sc2c1CCN(CC)C2`, the inhibition in experiment [1] was 22%.

Regarding `O=S(=O)(c1ccccc1)N(CC(O)CN(Cc1ccccc1)Cc1ccccc1)c1ccccc1` (stereo not given), the inhibition in experiment [1] came out at 15.2%.

Consider `O=C(NCCCN1CCN(c2ccccc2F)CC1)c1ccc(CNc2nc(=S)[nH]c3ccccc23)cc1`, for which, in experiment [1], the inhibition entry is “inactive”.

As to `FC(F)(F)c1cccc(N2CCN(CCNCc3cc(-c4ccccc4C(F)(F)F)no3)CC2)c1`, the IC50 in experiment [2] came out at 1020 nM.

`O=C(NCCCN1CCCC1)c1ccc2c(=O)n(Cc3ccc(Cl)cc3)c(=S)[nH]c2c1`: the IC50 in experiment [2] amounted to 1160 nM; in experiment [3], 17.2 µM. The inhibition in experiment [1] was 84.1%; in experiment [4], 85.4%.

Consider `CN(C)CCNC(=O)c1ccc2c(=O)n(Cc3ccc(Cl)cc3)c(=S)[nH]c2c1`, for which the IC50 in experiment [2] is 53500 nM. The inhibition in experiment [4] is 43.5%.

(Values after ChEMBL document CHEMBL1144535, “3D pharmacophore based virtual screening of T-type calcium channel blockers” (Bioorg Med Chem, 2007).)
